Tested on: AP-1
Assay: Inhibition of AP-1 activation (AP-1 DNA binding activity by EMSA) in LPS-stimulated RAW 264-7 macrophages
Assay type: cell-based, murine
Conditions: LPS-stimulated RAW 264-7 cells, nuclear extract; for AP-1 DNA binding at the highest concentration: 1000 μM (tested 0.1-1000 μM)
Description: The inhibition of the activation of AP-1 was shown with a pharmacological model. For this purpose, a cell culture of the murine macrophage cell line RAW 264-7 was taken and stimulated with 10 mg/ml LPS for 1 hour in the absence or in the presence of flurbiprofen. R-flurbiprofen (0.1, 1, 10, 100 and 1000 μM) and S-flurbiprofen (0.1, 1, 10, 100 and 1000 μM) were dissolved in phosphate buffer, added to the cell cultures 30 minutes before the LPS treatment. After conclusion of the treatment, the cells were harvested and worked up in a cytosol fraction and a cell nucleus extract. The cell nucleus extract ([…]) was incubated for 30 minutes with the AP-1-specific oligonucleotide 5′-CGCTT GATGACTCAGCCGGAA-3′ which is terminally labelled with ^32P ATP. From the incubation medium was separated the nucleus protein DNA complexes from the non-bound DNA by electro-phoresis (electrophoretic mobile shift assay EMSA). After drying of the gels, these were visualised by means of autoradiography.

Compound | AP-1 DNA binding at the highest concentration | inhibition of AP-1 DNA binding (10-1000 μM, added 30 minutes before LPS)
C[C@@H](C(=O)O)c1ccc(-c2ccccc2)c(F)c1 [R-flurbiprofen] | completely suppressed | inhibits the AP-1 DNA binding dosage-dependent
C[C@H](C(=O)O)c1ccc(-c2ccccc2)c(F)c1 [S-flurbiprofen, reference compound] | a reduction was found only in the case of the highest concentration | –

Source: patent US8092829B2, “Use of R-arylpropionic acids for treating illnesses with a rheumatic nature” (Paz Arzneimittelentwicklungsgesellschaft mbH, priority 2000, dated 2012)
